Measurements as given in patent US20200009105A1, “PROSTACYCLIN, PROSTACYCLIN ANALOGS, AND METHODS OF TREATING OR PREVENTING REJECTION OF SOLID ORGAN TRANSPLANTS” (VANDERBILT UNIVERSITY, priority 2017, published 2020).
Several values for one entry are separate records, joined by “and”; a condition that tells them apart may be missing. Identical values can stand only once.

Legend:
[1] = cited from earlier work
Th2 cells = settings: in vitro, Th2 cells differentiated under IL-4 and anti-IFN-γ; cited from earlier work
DCs = settings: cited from earlier work
IP = IP (Homo sapiens, UniProt P43119); settings: compared with treprostinil; cited from earlier work
[2] = in vivo; cited from earlier work
[3] = oral administration; cited from earlier work
lung DCs = settings: mouse model; cited from earlier work
[4] = rat, chronic administration; cited from earlier work
PGE2 receptor EP2 = PGE2 receptor EP2 (Homo sapiens, UniProt P43116); settings: cited from earlier work
STAT5 = experiment: Phosphorylated STAT5 in CD4+ T cell lysate (ELISA); format: cell-based, mouse; settings: WT cells, 2 days, IL-33
Protocol: (§1) Cell culture supernatant was collected at day 2 for IL-2 measurement because IL-2 production by activated CD4^+ T cells peak at day 2 (unpublished data). At day 3, the culture supernatant was harvested for IL-4, IL-5 and IL-13 measurement. At day 2, the cells were harvested and the cell lysate was prepared for p-STAT5 measurement.
(§2) IL-2, IL-4, IL-5, and IL-13 in the culture supernatant were measured by DuoSet ELISA kits from R&D Systems according to the manufacturer's instructions. Phosphorylated STAT5 (p-STAT5) was measured by phosphor-STAT5A/B (Tyr694/Tyr699) InstantOne™ ELISA kit (Affymetrixes). Measurements below the limit of detection were assigned a value of half the lower limit of detection for purposes of statistical analyses.
Binding of IL-2 to IL-2 receptor leads to the activation of JAK1 and JAK3 and the activation of the downstream transcription factors STAT5 (21). To test whether cicaprost downregulates IL-2 receptor signaling, the levels of phosphorylated STAT5 were measured in CD4^+ T cells harvested 2 days after the cell activation and treatment with IL-33 plus either vehicle or cicaprost.

ILC2 = settings: WT mice; cited from earlier work
Gata3 = Gata3 expression in CD4+ T cells by flow cytometry; format: cell-based, mouse; settings: WT mice, 1000 nM, IL-33, 3 days
Protocol: (§3) CD4^+ T cells were purified from the splenic cells of WT, or IP KO mice by a mouse naive CD4^+ T cell isolation kit II (Miltenyi Biotec, Auburn, Calif.). The purified CD4^+CD62L^+ T cell population contains 97.5% CD3^+CD4^+ cells as determined by flow cytometry. The purified CD4 T cells were resuspended at 1×10^6 cells/ml in RPMI 1640 medium (Mediatech, Herndon, Va.) supplemented with 10% FBS (HyClone, Logan, Utah), 4 mM of L-glutamine, 1 mM of sodium pyruvate, […] of 2-ME, 10 mM of HEPES, 100 U/ml penicillin, and 100 μg/ml streptomycin. The cells were stimulated with plate-bound anti-CD3 (10 μg/ml) and anti-CD28 (2 μg/ml; BD Biosciences, San Diego, Calif.) in 96-well flat-bottom plates and treated with IL-33 (20 ng/ml) plus cicaprost (a generous gift provided by Dr. Manuela Huebner, Bayer HealthCare, Berlin, Germany) at various concentrations or vehicle (water) control. The cells were cultured for 3 days. For T cell proliferation experiments, naive CD4^+ T cells were stained with 1 μM CFSE before cell culture and cicaprost treatment.
(§4) At day 3 of cell culture, the cells were harvested for flow cytometric staining with fluorochrome-labeled antibodies against CD4^+ (Biolegend, San Diego, Calif.), Gata3 (Affymetrix, Santa Clara, Calif.), CD25 (BD Biosciences, San Jose, Calif.), or TSLPR (R&D Systems, Minneapolis, Minn.). An LSR II flow cytometer (BD Biosciences) was used for flow cytometry and the data were analyzed with FlowJo software (FlowJo, LLC, Ashland Oreg.). For cell proliferation assay, CFSE intensity of the cultured cells was determined at day 3 by flow cytometry. Cell division index was calculated with FlowJo software. […]
The differentiation of naïve CD4^+ T cells into Th2 cells under IL-4 culture conditions requires the expression of the transcription factor Gata3 (18). To investigate whether Gata3 plays a role in the inhibitory effect of cicaprost on IL-33-induced type 2 cytokine production, the expression of Gata3 in CD4^+ T cells activated with IL-33 and treated with cicaprost at various concentrations or vehicle for 3 days was determined. […]

[5] = tested on: type 2 innate lymphoid cells (ILC2); settings: cited from earlier work
CD4^+ T cells [6] = experiment: CD4+ T cell proliferation (CFSE dilution) and live cell counting; format: cell-based, mouse; settings: WT CD4+ T cells, 1000 nM, IL-33, day 3
Protocol: (§5) CD4^+ T cells were purified from the splenic cells of WT, or IP KO mice by a mouse naive CD4^+ T cell isolation kit II (Miltenyi Biotec, Auburn, Calif.). The purified CD4^+CD62L^+ T cell population contains 97.5% CD3^+CD4^+ cells as determined by flow cytometry. The purified CD4 T cells were resuspended at 1×10^6 cells/ml in RPMI 1640 medium (Mediatech, Herndon, Va.) supplemented with 10% FBS (HyClone, Logan, Utah), 4 mM of L-glutamine, 1 mM of sodium pyruvate, […] of 2-ME, 10 mM of HEPES, 100 U/ml penicillin, and 100 μg/ml streptomycin. […]
as §4
To further analyze the effect of cicaprost on cell proliferation, naïve CD4^+ T cells were CFSE-labeled, activated with anti-CD3 and anti-CD28, and treated with IL-33 plus either vehicle or cicaprost. Cell proliferation was determined by CFSE dilution.

CD25 = CD25 surface expression on CD4+ T cells by flow cytometry; format: cell-based, mouse; settings: 3 days, vs vehicle control
Protocol: as §3
(§6) At day 3 of cell culture, the cells were harvested for flow cytometric staining with fluorochrome-labeled antibodies against CD4^+ (Biolegend, San Diego, Calif.), Gata3 (Affymetrix, Santa Clara, Calif.), CD25 (BD Biosciences, San Jose, Calif.), or TSLPR (R&D Systems, Minneapolis, Minn.). An LSR II flow cytometer (BD Biosciences) was used for flow cytometry and the data were analyzed with FlowJo software (FlowJo, LLC, Ashland Oreg.). For cell proliferation assay, CFSE intensity of the cultured cells was determined at day 3 by flow cytometry. Cell division index was calculated with FlowJo software. At day 3, the cells were stained with the cell viability dye 4,6-diamidino-2-phenylindole (DAPI), and 123count™ eBeads (Affymetrix) were added to the cell solution for live cell counting by flow cytometry.
(§7) To determine whether cicaprost attenuates the IL-2 signaling pathway, CD4^+ T cells activated and treated with either cicaprost or vehicle for 3 days were stained with fluorochrome-labeled anti-CD25 antibody and analyzed by flow cytometry.

CD4^+ T cells [7] = experiment: Intracellular cytokine staining for flow cytometry of IL-33-stimulated T cells; format: cell-based, mouse; settings: in the presence of IL-33, 3 days, vs vehicle
Protocol: as §5, §4

CD4^+ T cells [8] = experiment: IL-2 production by CD4+ T cells (ELISA, day 2 supernatant); format: cell-based, mouse; settings: WT CD4+ T cells, IL-33, day 2
Protocol: as §5
IL-2, IL-4, IL-5, and IL-13 in the culture supernatant were measured by DuoSet ELISA kits from R&D Systems according to the manufacturer's instructions. Phosphorylated STAT5 (p-STAT5) was measured by phosphor-STAT5A/B (Tyr694/Tyr699) InstantOne™ ELISA kit (Affymetrixes). […]
In vitro activation of mouse naïve CD4^+ T cells results in the expression of IL-2, a growth factor critical for cell survival and proliferation (19). To investigate whether cicaprost inhibits IL-33-induced type 2 cytokine production by suppressing CD4^+ T cell IL-2 production and cell activation, IL-2 levels were measured in the culture supernatant.

NFAT = NFAT function assay (NFAT-luciferase reporter lentiviral vector); format: cell-based, mouse; settings: WT cells, after 3 days of cell culture
Protocol: To determine NFAT activation, a Cignal Lenti NFAT reporter (luc) kit (Qiagen, Hilden, Germany), was used to transduce naïve CD4^+ T cells. CD4^+ T cells (10^5) of WT and IP KO mice were transduced with 2×10^5 transduction units of lentiviral vector (MOI=2) and 30 μg transduction reagent in 60 μl of transduction medium without antibiotics for 24 h in 96 well plates coated with anti-CD3 and anti-CD28. The cells were then pooled, washed, seeded and treated with IL-33 plus either cicaprost or vehicle. After culture for 2 more days in the same plates, the cells were harvested and the cell lysate was used for luciferase assay with Luciferase Assay System with Reporter Lysis Buffer (Promega, Madison, Wis.). The luciferase activity indicates the levels of NFAT activation. To determine whether the suppressive effect of cicaprost on IL-2 production is associated with the inhibition of NFAT, a transcription factor that binds to the IL-2 gene promoter to activate IL-2 gene expression, an NFAT function assay was performed with an NFAT-luciferase reporter lentiviral vector system.

[9] = tested on: naïve CD4^+ T cells of WT and IP KO mice; experiment: IL-33-induced type 2 cytokine production by naive CD4+ T cells (ELISA of culture supernatant); format: cell-based, mouse
Protocol: as §3, §1, §2
To determine the effect of PGI2 signaling on IL-33-induced Th2 differentiation, naïve CD4^+ T cells of WT and IP KO mice, both on BALB/c background, were activated with anti-CD3 and anti-CD28 either with or without IL-33 and treated with cicaprost or vehicle for 3 days.

TSLPR = TSLPR expression on T cells by flow cytometry; format: cell-based, mouse; settings: WT or IP KO T cell culture in the presence of IL-33 (data not shown)
Protocol: as §6, §7

[10] = IP KO CD4+ T cells, anti-CD3/anti-CD28 + IL-33, 3 days
[11] = WT CD4+ T cells, anti-CD3/anti-CD28 + IL-33, 3 days
[12] = in the presence of either 10 ng/ml or 50 ng/ml exogenous IL-2, IL-33, 3 days

Sequence of IP (P43119 whole entry): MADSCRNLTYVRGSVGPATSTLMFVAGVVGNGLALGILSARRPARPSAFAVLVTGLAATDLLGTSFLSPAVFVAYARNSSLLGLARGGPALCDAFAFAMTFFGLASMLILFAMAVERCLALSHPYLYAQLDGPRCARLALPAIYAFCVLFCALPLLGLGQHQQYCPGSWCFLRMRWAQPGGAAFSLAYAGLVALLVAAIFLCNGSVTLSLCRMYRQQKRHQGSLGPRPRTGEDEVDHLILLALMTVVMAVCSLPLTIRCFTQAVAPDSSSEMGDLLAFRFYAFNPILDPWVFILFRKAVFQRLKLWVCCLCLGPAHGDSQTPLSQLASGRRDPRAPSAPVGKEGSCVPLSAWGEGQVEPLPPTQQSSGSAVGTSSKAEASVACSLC
Sequence of PGE2 receptor EP2 (P43116 whole entry): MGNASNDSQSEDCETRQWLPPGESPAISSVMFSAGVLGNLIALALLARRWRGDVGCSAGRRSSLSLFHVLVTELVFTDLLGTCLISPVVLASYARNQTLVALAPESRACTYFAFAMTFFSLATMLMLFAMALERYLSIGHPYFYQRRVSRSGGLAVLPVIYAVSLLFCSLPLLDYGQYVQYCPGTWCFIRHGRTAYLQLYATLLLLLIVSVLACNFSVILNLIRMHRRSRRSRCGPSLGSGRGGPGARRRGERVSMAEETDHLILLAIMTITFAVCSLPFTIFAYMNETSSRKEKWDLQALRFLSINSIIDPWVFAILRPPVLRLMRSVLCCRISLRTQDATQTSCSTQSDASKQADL

CC#CCC(C)[C@H](O)/C=C/[C@@H]1[C@H]2C/C(=C/CCCC(=O)O)C[C@H]2C[C@H]1O (stereo partly drawn) [Iloprost]
half-life [1]: 13 min
production of effector cytokine IL-4 (Th2 cells): inhibited
production of effector cytokine IL-5 (Th2 cells): inhibited
LPS-induced expression of CD40 by DCs (DCs): suppressed
LPS-induced expression of CD86 by DCs (DCs): suppressed
LPS-induced expression of MHC class II molecules by DCs (DCs): suppressed
ability of DCs to stimulate antigen-specific CD4 T cell proliferation (DCs): inhibited
ability of DCs to stimulate production of the Th2 cytokine IL-5 (DCs): inhibited
ability of DCs to stimulate production of the Th2 cytokine IL-13 (DCs): inhibited
specificity for IP (IP): greater specificity for IP than treprostinil
safety of administration to pulmonary hypertension patients [2]: safe
iloprost reaching the systemic circulation [3]: less than 20%
maturation and migration of lung DCs to the mediastinal LNs (lung DCs): inhibited

CCCCC[C@H](O)/C=C/[C@@H]1[C@H]2C/C(=C/CCCC(=O)O)O[C@H]2C[C@H]1O [PGI2, prostacyclin]
half-life (biologic half-life) [1]: 46 seconds and 60-90 seconds

CCCCC[C@H](O)CC[C@@H]1[C@H]2Cc3cccc(OCC(=O)O)c3C[C@H]2C[C@H]1O [Treprostinil]
half-life compared with epoprostenol [1]: longer
degree of experimentally-induced pulmonary hypertension [4]: decreasing
activation of PGE2 receptor EP2 (PGE2 receptor EP2): also activated
safety of administration to pulmonary hypertension patients [2]: safely used

CCC#CC[C@H](C)[C@H](O)C#C[C@@H]1[C@H]2C/C(=C/COCC(=O)O)C[C@H]2C[C@H]1O [cicaprost]
production of effector cytokine IL-4 (Th2 cells): inhibited
production of effector cytokine IL-5 (Th2 cells): inhibited
STAT5 phosphorylation (STAT5): dose-dependently attenuated
ILC2 response (ILC2): inhibited
LPS-induced expression of CD40 by DCs (DCs): suppressed
LPS-induced expression of CD86 by DCs (DCs): suppressed
LPS-induced expression of MHC class II molecules by DCs (DCs): suppressed
ability of DCs to stimulate antigen-specific CD4 T cell proliferation (DCs): inhibited
ability of DCs to stimulate production of the Th2 cytokine IL-5 (DCs): inhibited
ability of DCs to stimulate production of the Th2 cytokine IL-13 (DCs): inhibited
Gata3 mean fluorescence intensity (Gata3): significantly decreased
percentages of Gata3-expressing CD4+ T cells (Gata3): significantly decreased
total number of Gata3-expressing CD4+ T cells (Gata3): significantly decreased
IL-33-induced cytokine responses of ILC2 [5]: inhibited
cell division index (CD4^+ T cells [6]): significantly decreased
total number of live cells (CD4^+ T cells [6]): significantly decreased
CD25 mean fluorescence intensity (CD25): dose-dependently decreased
percentages of CD25 expressing cells (CD25): dose-dependently decreased
total numbers of CD25 expressing cells (CD25): dose-dependently decreased
total numbers of IL-4+ T cells (CD4^+ T cells [7]): dose-dependently decreased
total numbers of IL-13+ T cells (CD4^+ T cells [7]): dose-dependently decreased
IL-2 production (CD4^+ T cells [8]): dose-dependently suppressed
NFAT function (luciferase activity) (NFAT): significantly suppressed
IL-4 production [9, 10]: did not change
IL-5 production [9, 10]: did not change
IL-13 production [9, 10]: did not change
IL-4 production [9, 11]: dose dependently decreased
IL-5 production [9, 11]: dose dependently decreased
IL-13 production [9, 11]: dose dependently decreased
IL-5 production [9, 12]: still significantly inhibited
IL-13 production [9, 12]: still significantly inhibited
TSLPR MFI (TSLPR): did not change
percentages of TSLPR expressing cells (TSLPR): did not change
